Experimental data reported in the NIST ThermoML archive (doi:10.1016/j.jct.2006.03.010).

Experiment: xn = mol fraction of the nth substance listed
Conditions: 101 kPa, Liquid; for speed of sound: Linear variable-path acoustic interferometer

ClC(Cl)Cl [trichloromethane] + CCCCO
Conditions | mass density, 298.15 K [kg/m3] | mass density, 308.15 K [kg/m3] | speed of sound, 298.15 K [m/s] | speed of sound, 308.15 K [m/s] | viscosity, 298.15 K [mPa·s] | viscosity, 308.15 K [mPa·s]
x1 = 0.0512 | 836.7 | 828.27 | 1215 | 1190 | 2.407 | 1.883
x1 = 0.1 | 865.9 | 857 | 1198 | 1171 | 2.248 | 1.764
x1 = 0.149 | 895.66 | 886.25 | 1180 | 1153 | 2.056 | 1.628
x1 = 0.2009 | 927.49 | 917.55 | 1163 | 1134 | 1.872 | 1.501
x1 = 0.2506 | 958.3 | 947.84 | 1146 | 1116 | 1.705 | 1.372
x1 = 0.2999 | 989.27 | 978.3 | 1130 | 1099 | 1.543 | 1.26
x1 = 0.3659 | 1031.4 | 1019.75 | 1110 | 1078 | 1.351 | 1.114
x1 = 0.407 | 1057.94 | 1045.83 | 1097 | 1065 | 1.245 | 1.035
x1 = 0.4515 | 1087.02 | 1074.42 | 1085 | 1051 | 1.139 | 0.957
x1 = 0.4997 | 1118.91 | 1105.67 | 1071 | 1037 | 1.041 | 0.886
x1 = 0.5502 | 1152.78 | 1138.99 | 1058 | 1024 | 0.945 | 0.815
x1 = 0.6012 | 1187.46 | 1173.05 | 1045 | 1011 | 0.877 | 0.76
x1 = 0.6527 | 1223.02 | 1207.99 | 1033 | 998 | 0.804 | 0.71
x1 = 0.7021 | 1257.69 | 1241.99 | 1022 | 987 | 0.755 | 0.67
x1 = 0.7519 | 1293.2 | 1276.84 | 1013 | 978 | 0.715 | 0.643
x1 = 0.8021 | 1329.4 | 1312.4 | 1004 | 969 | 0.67 | 0.607
x1 = 0.8518 | 1365.91 | 1348.31 | 997 | 962 | 0.654 | 0.595
x1 = 0.9024 | 1403.63 | 1385.4 | 992 | 956 | 0.614 | 0.565
x1 = 0.951 | 1440.79 | 1421.97 | 987 | 952 | 0.596 | 0.546
x1 = 1 | 1478.82 | 1459.45 | 985 | 950 | 0.556 | 0.513

ClC(Cl)Cl [trichloromethane] + CCCO
Conditions | mass density, 298.15 K [kg/m3] | mass density, 308.15 K [kg/m3] | speed of sound, 298.15 K [m/s] | speed of sound, 308.15 K [m/s] | viscosity, 298.15 K [mPa·s] | viscosity, 308.15 K [mPa·s]
x1 = 0.0521 | 838.68 | 829.81 | 1190 | 1155 | 1.84 | 1.452
x1 = 0.0995 | 872.8 | 863.45 | 1171 | 1136 | 1.734 | 1.373
x1 = 0.1503 | 909.09 | 899.13 | 1153 | 1117 | 1.611 | 1.283
x1 = 0.2009 | 944.84 | 934.26 | 1136 | 1099 | 1.492 | 1.196
x1 = 0.2497 | 979.01 | 967.92 | 1119 | 1082 | 1.374 | 1.111
x1 = 0.3057 | 1017.84 | 1006.01 | 1102 | 1064 | 1.235 | 1.011
x1 = 0.3499 | 1048.26 | 1036.01 | 1089 | 1052 | 1.155 | 0.952
x1 = 0.4031 | 1084.7 | 1071.81 | 1074 | 1036 | 1.049 | 0.886
x1 = 0.4509 | 1117.15 | 1103.72 | 1061 | 1023 | 0.968 | 0.818
x1 = 0.5055 | 1154.04 | 1139.98 | 1046 | 1009 | 0.885 | 0.76
x1 = 0.554 | 1186.48 | 1171.86 | 1035 | 998 | 0.822 | 0.714
x1 = 0.5994 | 1216.69 | 1201.5 | 1025 | 988 | 0.776 | 0.679
x1 = 0.651 | 1250.99 | 1235.18 | 1015 | 977 | 0.727 | 0.647
x1 = 0.7033 | 1285.41 | 1269.07 | 1006 | 968 | 0.705 | 0.618
x1 = 0.7505 | 1316.56 | 1299.61 | 999 | 961 | 0.666 | 0.602
x1 = 0.7999 | 1348.87 | 1331.42 | 993 | 955 | 0.64 | 0.585
x1 = 0.8507 | 1382.01 | 1363.98 | 987 | 950 | 0.625 | 0.572
x1 = 0.9002 | 1414.19 | 1395.63 | 984 | 947 | 0.605 | 0.557
x1 = 0.9484 | 1445.46 | 1426.51 | 983 | 947 | 0.586 | 0.539
x1 = 1 | 1478.82 | 1459.45 | 985 | 950 | 0.556 | 0.513
